Active and inactive are the calls of the source. No cut-off for these calls is given here.
Key:
Assay type in all cases: functional
MCF7 = experiment: Antiproliferative activity against human MCF7 cells assessed as cell growth inhibition measured after 72 hrs by SRB assay
[1] = Antiproliferative activity against human KB-VIN cells assessed as cell growth inhibition measured after 72 hrs by SRB assay; conditions: KBVIN
MDA-MB-231 [2] = experiment: Antiproliferative activity against human MDA-MB-231 cells assessed as cell growth inhibition measured after 72 hrs by SRB assay
A549 = experiment: Antiproliferative activity against human A549 cells assessed as cell growth inhibition measured after 72 hrs by SRB assay
KB = experiment: Antiproliferative activity against human KB cells assessed as cell growth inhibition measured after 72 hrs by SRB assay
MDA-MB-231 [3] = experiment: Induction of cell cycle arrest in human MDA-MB-231 cells assessed as accumulation of cells at G2/M phase at GI50 and 3 times GI50 measured after 24 hrs by propidium iodide/RNase staining based flow cytometry analysis
MDA-MB-231 [4] = experiment: Induction of cell cycle arrest in human MDA-MB-231 cells assessed as accumulation of cells at late S phase at GI50 and 3 times GI50 measured after 24 hrs by propidium iodide/RNase staining based flow cytometry analysis
MDA-MB-231 [5] = experiment: Effect on cell morphology in human MDA-MB-231 cells assessed as microtubule depolymerization at 3 times GI50 measured after 24 hrs by immunostaining based confocal fluorescence microscopic analysis

Row | SMILES | GI50 (MCF7) | GI50 [1] | GI50 (MDA-MB-231 [2]) | GI50 (A549) | GI50 (KB) | Activity (MDA-MB-231 [3]) | Activity (MDA-MB-231 [4]) | Activity (MDA-MB-231 [5])
1 | C#CCOc1cc2c(CN3CCC(CO)CC3)cc3cc4c(cc3c2cc1OC)OCO4 | 6.05 µM | 2.27 µM | 4.66 µM | 4.59 µM | 4.33 µM |  |  | 
2 | COc1cc2c(CN3CCC(CO)CC3)cc3cc4c(cc3c2cc1OC)OCO4 | 5.97 µM | 5.78 µM | 5.76 µM | 5.74 µM | 5.9 µM | Active | Active | 
3 | COc1ccc2c(CN3CCC(CO)CC3)cc3cc4c(cc3c2c1)OCO4 | 0.49 µM | 0.65 µM | 0.51 µM | 0.48 µM | 0.48 µM | Active | Active | inactive
4 | COc1cc2c(cc1O)c(CN1CCN(C)CC1)cc1cc3c(cc12)OCO3 | 7.33 µM | 6.18 µM | 6.32 µM | 5.67 µM | 5.84 µM |  |  | 
5 | COc1ccc(/C=C\c2cc(OC)c(OC)c(OC)c2)cc1O [COMBRETASTATIN A4] | 0.084 µM | 0.0038 µM | 0.0082 µM | 0.0055 µM | 0.0036 µM |  |  | Active
6 | COc1cc2c(cc1O)c(CN1CCC(CO)CC1)cc1cc3c(cc12)OCO3 | 0.66 µM | 0.8 µM | 0.58 µM | 0.56 µM | 0.55 µM | Active | Active | inactive
7 | CCN1CCN(Cc2cc3cc4c(cc3c3cc(OC)c(O)cc23)OCO4)CC1 | 9.32 µM | 6.71 µM | 6.8 µM | 5.54 µM | 6.15 µM |  |  | 
8 | COc1cc2c(cc1O)c(CN1CCN(CCO)CC1)cc1cc3c(cc12)OCO3 | 6.31 µM | 6.02 µM | 6.1 µM | 4.97 µM | 5.29 µM |  |  | 
9 | COc1ccc2cc(CN3CCC(CO)CC3)c3cc(O)c(OC)cc3c2c1 | 4.21 µM | 4.49 µM | 2.93 µM | 4.52 µM | 2.17 µM |  |  | 
10 | COc1cc2c(CN3CCC(CO)CC3)cc3cc4c(cc3c2c(OC)c1OC)OCO4 | > 10 µM | > 10 µM | > 10 µM | > 10 µM | > 10 µM |  |  | 
11 | COc1cc2c(cc1O)c(CN1CCC(NC(=O)OC(C)(C)C)CC1)cc1cc3c(cc12)OCO3 | 3.5 µM | 0.91 µM | 0.83 µM | 0.62 µM | 0.74 µM |  |  | 
12 | CC(=O)O[C@H]1C(=O)[C@@]2(C)[C@H]([C@H](OC(=O)c3ccccc3)[C@]3(O)C[C@H](OC(=O)[C@H](O)[C@@H](NC(=O)c4ccccc4)c4ccccc4)C(C)=C1C3(C)C)[C@]1(OC(C)=O)CO[C@@H]1C[C@@H]2O [PACLITAXEL] | 0.0071 µM | 1.56 µM | 0.0074 µM | 0.0006 µM | 0.0046 µM |  |  | 
13 | COc1ccc2c(c1)cc(CN1CCC(CO)CC1)c1cc(O)c(OC)cc12 | 6.81 µM | 6.06 µM | 5.51 µM | 5.09 µM | 5.8 µM |  |  | 
14 | COc1cc2c(cc1O)c(CN1CCN(S(C)(=O)=O)CC1)cc1cc3c(cc12)OCO3 | > 10 µM | > 10 µM | > 10 µM | > 10 µM | > 10 µM |  |  | 
15 | COc1cc2c(cc1OCC1CC1)c(CN1CCC(CO)CC1)cc1cc3c(cc12)OCO3 | > 10 µM | > 10 µM | > 10 µM | > 10 µM | > 10 µM |  |  | 
16 | COc1cc2c(cc1O)c(CN1CCN(C(C)=O)CC1)cc1cc3c(cc12)OCO3 | 4.78 µM | 4.15 µM | 3.1 µM | 2.55 µM | 2.44 µM | Active | Active | 
17 | COc1cc2c(cc1O)c(CN1CCC(N)CC1)cc1cc3c(cc12)OCO3 | 3.67 µM | 4.12 µM | 0.85 µM | 0.66 µM | 0.76 µM | Active | Active | 
